Assay results as given in paper PMC10746543, “Design principles for cyclin K molecular glue degraders” (Nature Chemical Biology, 2023).

Tests used:
CDK12–cyclin K and DDB1 = biological target: T1, CDK12–cyclin K and DDB1 (Homo sapiens, UniProt Q16531+Q9NYV4, K965R); assay: TR-FRET Kd determination, quadratic fit, 50 nM or 10 nM CDK12–cyclin K; format: binding; settings: for Kd / TR-FRET Kd*: n = 1
T1 construct: His6–CDK12 (a.a. 713–1,052); full-length or beta-propeller B domain deletion (ΔBPB: a.a. 396–705 deleted) constructs of His6–DDB1ΔBPB, StrepII–Avi–DDB1, or His6–Spy–DDB1; made in house; host or cells: Trichoplusia ni High Five insect cells (baculovirus)
Source text: Equation (2) is a quadratic binding equation used for Kd determination,where Top and Bottom refer to the curve plateaus. […]

CDK12 = biological target: CDK12; set-up: method as in PMID 30065029; settings: read-out: CDK12 binding affinity; cited from earlier work
[1] = 10 nM CDK12-cyclin K, compound 0.468 nM
[2] = 10 nM CDK12-cyclin K, compound 2.16 nM
[3] = 10 nM CDK12-cyclin K, compound 3.6 nM
[4] = 10 nM CDK12-cyclin K, compound 7.92 nM
[5] = 10 nM CDK12-cyclin K, compound 15.84 nM
[6] = 10 nM CDK12-cyclin K, compound 30.96 nM
[7] = 10 nM CDK12-cyclin K, compound 62.6399 nM
[8] = 10 nM CDK12-cyclin K, compound 125.279 nM
[9] = 10 nM CDK12-cyclin K, compound 244.8 nM
[10] = 10 nM CDK12-cyclin K, compound 993.6 nM
[11] = 10 nM CDK12-cyclin K, compound 2001.6 nM
[12] = 50 nM CDK12-cyclin K, compound 0.468 nM
[13] = 50 nM CDK12-cyclin K, compound 2.16 nM
[14] = 50 nM CDK12-cyclin K, compound 3.6 nM
[15] = 50 nM CDK12-cyclin K, compound 7.92 nM
[16] = 50 nM CDK12-cyclin K, compound 15.84 nM
[17] = 50 nM CDK12-cyclin K, compound 30.96 nM
[18] = 50 nM CDK12-cyclin K, compound 62.6399 nM
[19] = 50 nM CDK12-cyclin K, compound 125.279 nM
[20] = 50 nM CDK12-cyclin K, compound 244.8 nM
[21] = 50 nM CDK12-cyclin K, compound 993.6 nM
[22] = 50 nM CDK12-cyclin K, compound 2001.6 nM
[23] = 10 nM CDK12-cyclin K + 100 nM DDB1
[24] = 50 nM CDK12-cyclin K + 100 nM DDB1

T1 sequence (Q9NYV4 713-1052 K965R): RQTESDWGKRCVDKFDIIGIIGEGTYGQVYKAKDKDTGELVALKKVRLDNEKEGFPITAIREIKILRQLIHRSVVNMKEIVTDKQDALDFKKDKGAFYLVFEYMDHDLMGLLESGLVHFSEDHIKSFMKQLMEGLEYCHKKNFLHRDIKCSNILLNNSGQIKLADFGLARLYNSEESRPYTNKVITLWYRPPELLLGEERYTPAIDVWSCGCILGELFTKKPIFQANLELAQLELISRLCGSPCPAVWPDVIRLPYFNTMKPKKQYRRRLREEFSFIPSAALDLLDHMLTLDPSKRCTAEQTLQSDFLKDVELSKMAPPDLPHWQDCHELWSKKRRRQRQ
T1 sequence (O75909 1-267 partner): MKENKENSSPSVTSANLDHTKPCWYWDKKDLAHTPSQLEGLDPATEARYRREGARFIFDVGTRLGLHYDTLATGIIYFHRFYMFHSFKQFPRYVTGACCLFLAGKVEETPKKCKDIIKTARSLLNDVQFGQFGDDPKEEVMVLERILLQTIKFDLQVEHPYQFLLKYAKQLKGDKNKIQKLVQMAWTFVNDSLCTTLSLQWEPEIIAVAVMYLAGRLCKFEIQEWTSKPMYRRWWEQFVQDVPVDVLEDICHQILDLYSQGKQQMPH
T1 sequence (Q16531 whole entry): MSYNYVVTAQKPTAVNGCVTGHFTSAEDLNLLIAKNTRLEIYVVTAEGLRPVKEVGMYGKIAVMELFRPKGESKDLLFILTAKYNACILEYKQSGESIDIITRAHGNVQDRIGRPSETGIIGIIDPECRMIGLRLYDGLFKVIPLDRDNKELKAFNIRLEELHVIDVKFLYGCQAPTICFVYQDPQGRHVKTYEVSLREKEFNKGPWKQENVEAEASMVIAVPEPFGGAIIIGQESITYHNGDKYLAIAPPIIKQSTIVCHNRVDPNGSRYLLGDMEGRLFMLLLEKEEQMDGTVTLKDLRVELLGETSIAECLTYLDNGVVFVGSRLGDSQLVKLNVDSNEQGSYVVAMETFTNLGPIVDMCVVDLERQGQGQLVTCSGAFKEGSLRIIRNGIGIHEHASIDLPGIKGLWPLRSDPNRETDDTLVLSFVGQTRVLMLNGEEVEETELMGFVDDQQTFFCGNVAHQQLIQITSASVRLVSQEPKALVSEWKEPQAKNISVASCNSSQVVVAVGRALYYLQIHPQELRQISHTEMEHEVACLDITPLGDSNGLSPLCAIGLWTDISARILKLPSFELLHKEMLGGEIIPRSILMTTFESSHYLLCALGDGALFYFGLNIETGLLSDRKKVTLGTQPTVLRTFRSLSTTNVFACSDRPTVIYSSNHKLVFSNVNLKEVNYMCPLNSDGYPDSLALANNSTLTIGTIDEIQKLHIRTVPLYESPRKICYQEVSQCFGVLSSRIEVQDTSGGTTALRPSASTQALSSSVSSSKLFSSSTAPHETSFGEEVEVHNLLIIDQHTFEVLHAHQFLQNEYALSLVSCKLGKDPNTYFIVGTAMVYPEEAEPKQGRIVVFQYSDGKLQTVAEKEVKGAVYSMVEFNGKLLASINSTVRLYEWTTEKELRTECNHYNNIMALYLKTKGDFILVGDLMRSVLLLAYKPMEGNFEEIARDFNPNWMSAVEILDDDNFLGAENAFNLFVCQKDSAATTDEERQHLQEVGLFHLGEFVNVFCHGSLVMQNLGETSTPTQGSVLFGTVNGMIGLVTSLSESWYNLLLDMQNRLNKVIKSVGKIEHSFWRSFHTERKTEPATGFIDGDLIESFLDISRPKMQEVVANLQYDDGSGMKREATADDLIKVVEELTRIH

Structure (SMILES) | TR-FRET signal (CDK12–cyclin K and DDB1; [1]) | TR-FRET signal (CDK12–cyclin K and DDB1; [2]) | TR-FRET signal (CDK12–cyclin K and DDB1; [3]) | TR-FRET signal (CDK12–cyclin K and DDB1; [4]) | TR-FRET signal (CDK12–cyclin K and DDB1; [5]) | TR-FRET signal (CDK12–cyclin K and DDB1; [6]) | TR-FRET signal (CDK12–cyclin K and DDB1; [7]) | TR-FRET signal (CDK12–cyclin K and DDB1; [8]) | TR-FRET signal (CDK12–cyclin K and DDB1; [9]) | TR-FRET signal (CDK12–cyclin K and DDB1; [10]) | TR-FRET signal (CDK12–cyclin K and DDB1; [11]) | TR-FRET signal (CDK12–cyclin K and DDB1; [12]) | TR-FRET signal (CDK12–cyclin K and DDB1; [13]) | TR-FRET signal (CDK12–cyclin K and DDB1; [14]) | TR-FRET signal (CDK12–cyclin K and DDB1; [15]) | TR-FRET signal (CDK12–cyclin K and DDB1; [16]) | TR-FRET signal (CDK12–cyclin K and DDB1; [17]) | TR-FRET signal (CDK12–cyclin K and DDB1; [18]) | TR-FRET signal (CDK12–cyclin K and DDB1; [19]) | TR-FRET signal (CDK12–cyclin K and DDB1; [20]) | other results
CCC(CO)Nc1nc(NCc2ccc(-c3ccccn3)cc2)c2ncn(C(C)C)c2n1 (stereo not shown) [CR8, reference compound] | 0.1037 | 0.135 | 0.1982 | 0.284 | 0.3713 | 0.4536 | 0.4778 | 0.4982 | 0.5242 | 0.5359 | 0.5508 | 0.2224 | 0.2548 | 0.3253 | 0.4723 | 0.7533 | 1.3518 | 2.31 | 2.851 | 2.999 | TR-FRET signal (CDK12–cyclin K and DDB1; [21]): 3.086; TR-FRET signal (CDK12–cyclin K and DDB1; [22]): 3.013
CC[C@H](CO)Nc1nc(NCc2nc3cc(Cl)c(Cl)cc3[nH]2)c2ncn(C(C)C)c2n1 [DS17] | 0.1296 | 0.2552 | 0.4087 | 0.5094 | 0.5468 | 0.5623 | 0.5693 | 0.582 | 0.5785 | 0.5613 | 0.5626 | 0.2322 | 0.3077 | 0.4714 | 0.8383 | 1.774 | 3.053 | 3.258 | 3.326 | 3.353 | Kd (CDK12–cyclin K and DDB1; [23]): < 1 nM; TR-FRET Kd* (CDK12–cyclin K and DDB1; [23]): subnanomolar range; Kd (CDK12–cyclin K and DDB1; [24]): < 1 nM; TR-FRET signal (CDK12–cyclin K and DDB1; [21]): 3.25; TR-FRET signal (CDK12–cyclin K and DDB1; [22]): 3.218
Cc1cc2nc(CNc3nc(N4CCN(C)CC4)nc4c(Br)cnn34)[nH]c2cc1C [DS73, reference compound] | 0.1115 | 0.172 | 0.3284 | 0.4288 | 0.4992 | 0.5275 | 0.5247 | 0.5329 | 0.5439 | 0.5387 | 0.5235 | 0.2245 | 0.505 | 0.4237 | 0.5318 | 0.9093 | 1.797 | 2.967 | 3.159 | 3.183 | Kd (CDK12–cyclin K and DDB1; [23]): 0.2 ± 0.3 nM; TR-FRET Kd* (CDK12–cyclin K and DDB1; [23]): subnanomolar range; Kd (CDK12–cyclin K and DDB1; [24]): 2 ± 1 nM; TR-FRET signal (CDK12–cyclin K and DDB1; [21]): 3.081; TR-FRET signal (CDK12–cyclin K and DDB1; [22]): 3.197
C[C@H](C(=O)Nc1nc2ccccc2[nH]1)N1Cc2ccccc2C1=O [compound 919278] |  |  |  |  |  |  |  |  |  |  |  |  |  |  |  |  |  |  |  |  | Kd (CDK12): 5600 nM
